# Article PMC12599236, “Itaconate utilisation by the human pathogen Pseudomonas aeruginosa requires uptake via the IctPQM TRAP transporter” (Biochemical Journal, 2025)
# Columns and labels:
# Assay type in all cases: binding
# IctP (PA0884) [1] = target: T1, IctP (PA0884) (Pseudomonas aeruginosa, UniProt Q9I561); experiment: crystal structure ([…] Å); intrinsic tryptophan fluorescence titration; nanoDSF (~[…] °C shift)
# T1 construct: SBP domain (pa0884), recombinant from E. coli
# IctP (PA0884) [2] = target: T1, IctP (PA0884); experiment: intrinsic tryptophan fluorescence titration
# IctP (PA0884) [3] = target: T1, IctP (PA0884); experiment: crystal structure ([…] Å); intrinsic tryptophan fluorescence titration; nanoDSF (~[…] °C shift); remark: listed apart in the source
# T1 sequence (Q9I561 entry or part of it): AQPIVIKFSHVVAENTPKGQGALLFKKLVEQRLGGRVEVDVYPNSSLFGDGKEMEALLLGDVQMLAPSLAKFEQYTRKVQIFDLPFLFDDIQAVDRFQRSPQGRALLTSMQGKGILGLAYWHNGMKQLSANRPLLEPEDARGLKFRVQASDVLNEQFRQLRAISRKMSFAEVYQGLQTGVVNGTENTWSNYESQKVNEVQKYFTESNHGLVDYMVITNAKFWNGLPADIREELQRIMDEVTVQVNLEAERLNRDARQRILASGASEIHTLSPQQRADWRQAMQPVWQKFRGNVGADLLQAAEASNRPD
structure (smiles),measurement,setting,value
"C=C(CC(=O)O)C(=O)O [itaconate, 2-methylenesuccinate]",Kd,IctP (PA0884) [1],180 µM
O=C(O)C[C@H](O)C(=O)O [L-malate],Kd,IctP (PA0884) [2],16.2 µM
O=C(O)CCC(=O)O [succinate],Kd,IctP (PA0884) [3],32.6 µM
